# Data taken from patent US11236129B2, “IL-17A binding peptides and medical uses thereof” (Dompe' Farmaceutici S.P.A., priority 2018, dated 2022).
# pIC50: −log10 of the molar value. Residues, ends and D or L forms follow the SMILES beside them.
# Biological target: IL-17RA/IL17RC dimerization induced by IL-17A (Homo sapiens, UniProt Q16552)
# Assay: IL-17RA/IL17RC dimerization assay in response to IL-17A (PathHunter Cytokine Receptor Assay)
# Assay type: cell-based
# Conditions: IL-17A at EC80; read-out: IC50 in IL-17RA/IL7RC dimerization assay
# Method in brief: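 PathHunter cells with IL-17RA and IL-17RC tagged for β-galactosidase complementation were preincubated 60 min with peptide (1% vehicle). IL-17A was then added at EC80 for 6–16 h at 37 °C, and chemiluminescence was read. Inhibition is relative to the EC80 and vehicle controls.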
# Sequence of IL-17RA/IL17RC dimerization induced by IL-17A (Q16552 24-155): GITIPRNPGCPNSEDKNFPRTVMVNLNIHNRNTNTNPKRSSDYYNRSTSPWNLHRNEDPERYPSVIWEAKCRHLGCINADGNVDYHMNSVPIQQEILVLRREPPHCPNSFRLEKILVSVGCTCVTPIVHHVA
row,SMILES,pIC50
1,CC[C@H](C)[C@H](NC(C)=O)C(=O)N[C@@H](Cc1c[nH]cn1)C(=O)N[C@H](C(=O)N[C@H](C(=O)N[C@H](C(=O)N1CCC[C@H]1C(=O)N[C@@H](C)C(=O)N[C@@H](CC(=O)O)C(=O)N[C@@H](CC(C)C)C(=O)N[C@@H](Cc1c[nH]c2ccccc12)C(=O)N[C@@H](CC(=O)O)C(=O)N[C@@H](Cc1c[nH]c2ccccc12)C(=O)N[C@@H](C)C(=O)N[C@@H](CC(N)=O)C(=O)N[C@@H](CCCCN)C(N)=O)[C@@H](C)CC)[C@@H](C)O)C(C)C [SEQ ID NO: 214] (Ac-IHVTIPADLWDWANK-NH2),> 5.00
2,CC[C@H](C)[C@H](NC(=O)[C@H](Cc1c[nH]c2ccccc12)NC(=O)[C@H](CC(=O)O)NC(=O)[C@H](Cc1c[nH]c2ccccc12)NC(=O)[C@H](CC(C)C)NC(=O)[C@H](CC(=O)O)NC(=O)[C@H](C)NC(=O)[C@@H]1CCCN1C(=O)[C@@H](NC(=O)[C@@H](NC(=O)[C@@H](NC(=O)[C@H](Cc1c[nH]cn1)NC(=O)[C@H](CC(C)C)NC(C)=O)C(C)C)[C@@H](C)O)[C@@H](C)CC)C(=O)N[C@@H](CC(N)=O)C(=O)N[C@@H](CCCCN)C(N)=O [SEQ ID NO: 160] (Ac-LHVTIPADLWDWINK-NH2),> 5.00
3,CC[C@H](C)[C@H](NC(C)=O)C(=O)N[C@@H](Cc1c[nH]cn1)C(=O)N[C@@H](CC(C)C)C(=O)N[C@H](C(=O)N[C@H](C(=O)N1CCC[C@H]1C(=O)N[C@@H](C)C(=O)N[C@@H](CC(=O)O)C(=O)N[C@@H](CC(C)C)C(=O)N[C@@H](Cc1c[nH]c2ccccc12)C(=O)N[C@@H](CC(=O)O)C(=O)N[C@@H](Cc1c[nH]c2ccccc12)C(=O)N[C@H](C(=O)N[C@@H](CC(N)=O)C(=O)N[C@@H](CCCCN)C(N)=O)[C@@H](C)CC)[C@@H](C)CC)[C@@H](C)O [SEQ ID NO: 169] (Ac-IHLTIPADLWDWINK-NH2),> 5.00
4,CC[C@H](C)[C@H](NC(=O)[C@@H](NC(=O)[C@H](Cc1ccccc1)NC(=O)[C@H](Cc1c[nH]cn1)NC(=O)[C@@H](NC(C)=O)C(C)C)[C@@H](C)O)C(=O)N1CCC[C@H]1C(=O)N[C@@H](C)C(=O)N[C@@H](CC(=O)O)C(=O)N[C@@H](CC(C)C)C(=O)N[C@@H](Cc1ccc(O)cc1)C(=O)N[C@@H](CC(N)=O)C(=O)N[C@@H](Cc1ccccc1)C(=O)N[C@H](C(=O)N[C@@H](CCCNC(=N)N)C(=O)N[C@@H](CCCNC(=N)N)C(N)=O)C(C)C [SEQ ID NO: 152] (Ac-VHFTIPADLYNFVRR-NH2),> 6.30
5,CC[C@H](C)[C@H](NC(=O)[C@@H](NC(=O)[C@@H](NC(=O)[C@H](Cc1c[nH]cn1)NC(=O)[C@@H](NC(C)=O)C(C)C)C(C)C)[C@@H](C)O)C(=O)N1CCC[C@H]1C(=O)N[C@@H](C)C(=O)N[C@@H](CC(=O)O)C(=O)N[C@@H](CC(C)C)C(=O)N[C@@H](Cc1c[nH]c2ccccc12)C(=O)N[C@@H](CC(N)=O)C(=O)N[C@@H](Cc1c[nH]c2ccccc12)C(=O)N[C@H](C(=O)N[C@@H](CCCNC(=N)N)C(=O)N[C@@H](CCCNC(=N)N)C(N)=O)C(C)C [SEQ ID NO: 119] (Ac-VHVTIPADLWNWVRR-NH2),> 6.30
6,CC[C@H](C)[C@H](NC(C)=O)C(=O)N[C@@H](Cc1c[nH]cn1)C(=O)N[C@H](C(=O)N[C@H](C(=O)N1CCC[C@H]1C(=O)N1CCC[C@H]1C(=O)N[C@@H](C)C(=O)N[C@@H](CC(=O)O)C(=O)N[C@@H](CC(C)C)C(=O)N[C@@H](Cc1c[nH]c2ccccc12)C(=O)N[C@@H](CC(=O)O)C(=O)N[C@@H](Cc1c[nH]c2ccccc12)C(=O)N[C@H](C(=O)N[C@@H](CC(N)=O)C(=O)N[C@@H](CCCCN)C(N)=O)[C@@H](C)CC)[C@@H](C)O)C(C)C [SEQ ID NO: 182] (Ac-IHVTPPADLWDWINK-NH2),> 5.00

# Further lines, results first:
row,pIC50,SMILES
1,> 5.00,CC[C@H](C)[C@H](NC(=O)[C@H](Cc1c[nH]c2ccccc12)NC(=O)[C@H](CC(=O)O)NC(=O)[C@H](Cc1c[nH]c2ccccc12)NC(=O)[C@H](CC(C)C)NC(=O)[C@H](CC(=O)O)NC(=O)[C@H](C)NC(=O)[C@@H]1CCCN1C(=O)[C@@H](NC(=O)[C@H](CO)NC(=O)[C@@H](NC(=O)[C@H](CCCCN)NC(=O)[C@@H](NC(C)=O)C(C)C)[C@@H](C)CC)C(C)C)C(=O)N[C@@H](CC(N)=O)C(=O)N[C@@H](CCCCN)C(N)=O [SEQ ID NO: 239] (Ac-VKISVPADLWDWINK-NH2)
2,> 5.00,CC[C@H](C)[C@H](NC(=O)[C@H](CCC(=O)O)NC(=O)[C@H](CC(C)C)NC(=O)[C@@H]1CCCN1C(=O)[C@@H](NC(=O)[C@H](CO)NC(=O)CNC(=O)[C@H](CCCNC(=N)N)NC(=O)[C@H](CC(C)C)NC(C)=O)C(C)C)C(=O)N[C@@H](Cc1ccccc1)C(=O)N[C@@H](CCC(=O)O)C(=O)N[C@@H](Cc1c[nH]c2ccccc12)C(=O)N[C@@H](CC(C)C)C(=O)N[C@@H](CCC(N)=O)C(=O)N[C@@H](Cc1c[nH]cn1)C(N)=O [SEQ ID NO: 253] (Ac-LRGSVPLEIFEWLQH-NH2)
3,> 5.00,CC[C@H](C)[C@H](NC(C)=O)C(=O)N[C@@H](Cc1c[nH]cn1)C(=O)N[C@H](C(=O)N[C@H](C(=O)N[C@H](C(=O)N1CCC[C@H]1C(=O)N[C@@H](C)C(=O)N[C@@H](CC(=O)O)C(=O)N[C@@H](CC(C)C)C(=O)N[C@@H](Cc1c[nH]c2ccccc12)C(=O)N[C@@H](CC(=O)O)C(=O)N[C@@H](Cc1c[nH]c2ccccc12)C(=O)N[C@@H](Cc1ccccc1)C(=O)N[C@@H](CC(N)=O)C(=O)N[C@@H](CCCCN)C(N)=O)[C@@H](C)CC)[C@@H](C)O)C(C)C [SEQ ID NO: 218] (Ac-IHVTIPADLWDWFNK-NH2)
4,> 5.00,CC[C@H](C)[C@H](NC(=O)[C@H](CCC(=O)O)NC(=O)[C@H](CCC(N)=O)NC(=O)[C@@H]1CCCN1C(=O)[C@@H](NC(=O)[C@@H](NC(=O)[C@@H](NC(=O)[C@H](Cc1c[nH]cn1)NC(=O)[C@@H](NC(C)=O)C(C)C)C(C)C)[C@@H](C)O)C(C)C)C(=O)N[C@@H](Cc1ccc(O)cc1)C(=O)N[C@@H](CCC(=O)O)C(=O)N[C@@H](Cc1c[nH]c2ccccc12)C(=O)N[C@H](C(=O)N[C@@H](CCCNC(=N)N)C(=O)N[C@@H](CCCNC(=N)N)C(N)=O)C(C)C [SEQ ID NO: 236] (Ac-VHVTVPQEIYEWVRR-NH2)
5,> 5.00,CC[C@H](C)[C@H](NC(C)=O)C(=O)N[C@@H](Cc1c[nH]cn1)C(=O)N[C@H](C(=O)N[C@H](C(=O)N[C@H](C(=O)N1CCC[C@H]1C(=O)N[C@@H](C)C(=O)N[C@@H](CC(=O)O)C(=O)N[C@@H](CC(C)C)C(=O)N[C@@H](Cc1c[nH]c2ccccc12)C(=O)N[C@@H](CC(=O)O)C(=O)N[C@@H](Cc1c[nH]c2ccccc12)C(=O)N[C@H](C(=O)N[C@@H](CC(=O)O)C(=O)N[C@@H](CCCCN)C(N)=O)[C@@H](C)CC)[C@@H](C)CC)[C@@H](C)O)C(C)C [SEQ ID NO: 221] (Ac-IHVTIPADLWDWIDK-NH2)
6,> 5.00,CC[C@H](C)[C@H](NC(C)=O)C(=O)N[C@@H](Cc1c[nH]cn1)C(=O)N[C@H](C(=O)N[C@H](C(=O)N[C@H](C(=O)N1CCC[C@H]1C(=O)N[C@@H](C)C(=O)N[C@@H](CC(=O)O)C(=O)N[C@@H](CC(C)C)C(=O)N[C@@H](Cc1c[nH]c2ccccc12)C(=O)N[C@@H](CC(=O)O)C(=O)N[C@@H](Cc1c[nH]c2ccccc12)C(=O)N[C@@H](CC(C)C)C(=O)N[C@@H](CC(N)=O)C(=O)N[C@@H](CCCCN)C(N)=O)[C@@H](C)CC)[C@@H](C)O)C(C)C [SEQ ID NO: 216] (Ac-IHVTIPADLWDWLNK-NH2)
